As a reminder, the IC50 is the midpoint of a concentration-inhibition curve. As a reminder, the GI50 is the concentration at which growth is held to half of that of the control. Higher therefore signals lower sensitivity of the cells.

Data set [1] relates to K562 human chronic myeloid leukemia cells. In words: MTT cytotoxicity on K562 cells. Format: cell-based. The conditions noted are these: K562 cells.
For data set [2], the system named is human colon adenocarcinoma cell line, LS 174T. In words: SRB cytotoxicity on LS174T cells. The class given is cell-based.
Protocol: (§1) Cells were seeded in 96-well microtiter plates at densities of 1000 cells/well. The optimal seeding density was determined to ensure exponential growth in control wells throughout the experimental period and to obtain a linear relationship between absorbance at 492 nm and cell number when analyzed by the sulforhodamine B (SRB) assay (43). 24 hours after seeding the cells were incubated for 1 hour or continuously for 3 days with the drugs (concentration range 0.01 to 500 μM). The cells were washed once and then incubated in drug free medium for 6 days. At the end of the incubation cell growth was determined by the SRB assay, which quantifies viable cells by measuring their total cellular protein content. […] Similar studies were conducted against the growth of PC3 (human prostate cancer cells) and MCF-7 (human breast cancer cells).
For data set [3], the system named is PC3 (human prostate cancer cells). The data set is described as follows: SRB cytotoxicity on PC3 cells. Format: cell-based.
Protocol: as §1
The subject of data set [4] is L1210 leukemia cells. In words: MTT cytotoxicity on L1210 cells. The class given is cell-based, murine. Conditions: 72 hr incubation. The method, then: The P815 and L1210 cell lines were obtained from American Type Tissue Culture Collection (ATCC). The cell lines were grown in Delbecco's Modified Eagle Medium (DMEM, Atlanta Biologicals) supplemented with 10% fetal bovine serum, Hepes Buffer (2 mM, Mediatech Cellgro, 25-060-Cl), L-Glutamine (2 mM, Mediatech Cellgro), and penicillin/streptomycin (50,000 units penicillin, 50,000 […], Atlanta Biologicals). Cells were maintained at 37° C. in a 5% humidified CO2 atmosphere. Cultured cells were counted using a hemocytometer and resuspended in fresh DMEM at a concentration of 8×10^5 cells/mL. This cell suspension (100 μL) was added to 96 well flat -bottom cell culture plates. At this concentration, 80,000 cells were seeded in each well. Drug solutions (dissolved in DMSO and diluted in DMEM) were added to each well (5 μL/well) resulting in final concentrations ranging from 1×10^−4 to 1×10^−12 M. Quadruplicate wells were prepared for each drug concentration. The plates were incubated for 72 hr at 37° C. in a 5% CO2 atmosphere. MTT (3-(4,5-dimethylthiazol-2-yl)-2,5-diphenyl tetrazolium bromide) was dissolved in PBS (5 mg/ml). After the indicated cell incubation period, 10 μL of this stock MTT solution was added to each well and the plates were further incubated for 4 h at 37° C. in a 5% CO2 atmosphere. […] The contents of the well were mixed thoroughly by pipetting the cell suspension up and down and the plates were allowed to sit at room temperature for 15 min in order to allow for full development of the purple color. The plates were read on a Dynatech Plate Reader, utilizing Dynex Revelation 3.2 software, with a test wavelenth of 570 nm and a reference wavelength of 630 nm.

For data set [5], the system named is human H522 lung cancer. The conditions noted are these: hollow fiber.
Data set [6] relates to K-562.
Protocol: (§2) The compounds of this invention were also tested against the panel of 60 human cancer cell lines at the National Cancer Institute, Bethesda, Md. […] The cytrotoxicity studies were conducted using a 48 hour exposure, and measuring the optical density of sulforhodamide B-derived color.
Data set [7] concerns SR.
Protocol: as §2
The subject of data set [8] is SF-539.
Protocol: as §2
The test system of data set [9] is U251.
Protocol: as §2
The subject of data set [10] is SK-MEL-28.
Protocol: as §2
For data set [11], the system named is OVCAR-4.
Protocol: as §2
Data set [12] concerns UO-31.
Protocol: as §2
The subject of data set [13] is NCI-H460. The data set is described as follows: NCI screen, NCI-H460 (Non-Small Cell Lung Cancer). The class given is cell-based, human.
Protocol: as §2
Data set [14] concerns COLO 205. In words: NCI screen, COLO 205 (Colon Cancer). Format: cell-based, human.
Protocol: as §2
Data set [15] has as its system A498. In words: NCI screen, A498 (Renal Cancer). Format: cell-based, human.
Protocol: as §2
Data set [16] has as its system A549/ATCC. In words: cells. The conditions noted are these: Homo sapiens, A549, 48 h.
[17] abbreviates: Log10 Concentration −4.3, 48 hour exposure.
Setting [18] is: Log10 Concentration −5.3, 48 hour exposure.
The mark [19] stands for this setting: Log10 Concentration −6.3, 48 hour exposure.
The mark [20] stands for this setting: Log10 Concentration −7.3, 48 hour exposure.
Where [21] appears, read: Log10 Concentration −8.3, 48 hour exposure.

Several values for one entry are separate records, joined by “and”; a condition that tells them apart may be missing. Equal entries are not always repeated. Where two headings read alike, the source gives them in different places. A value given as a limit tells only on which side of the number the result lay.

Take `O=C(Nc1cc(O)ccc1CCCl)c1cc2cc(NC(=O)c3cc4ccccc4o3)ccc2[nH]1` [Compound 1, 4-(2-Chloroethyl)-3-[5-(5-benzofuran-2-carboxamido)indole-2-carboxamido]phenol]: the IC50 in [1] (continuous exposure (3 days), read-out: IC50 continuous exposure (3 days)) turned out to be 1.47 ± 0.8 µM; in [1] (read-out: IC50 1 hour exposure, 1 hour exposure), 12.1 ± 1.8 µM; in [2] (continuous exposure, read-out: IC50 LS174T Continuous exposure), 2.27 µM; in [2] (read-out: IC50 LS174T 1 hour exposure, 1 hour exposure), 18 µM; in data set [3] (continuous exposure, read-out: IC50 PC3 Continuous exposure), 3 µM; in data set [3] (read-out: IC50 PC3 1 hour exposure, 1 hour exposure), 82.4 µM. The same molecule returned an IC50 in [4] of 23 µM. Besides, the “IP+SC score” value in [5] is listed as 18. In addition, the cell kill entry in data set [5] is on record as “significant cells kill was observed”. The molecule further showed an IP score in [5] (intraperitoneal fibers) of 8. This molecule also gave an SC score in data set [5] (subcutaneous fibers) of 10. In addition, the CC50 was above 100 µM in data set [6]; above 100 µM in data set [7]; 9 µM in data set [8]; 53.9 µM in data set [9]; 21.4 µM in [10]; 20 µM in [12]. Moreover, the “Percent Growth” value in data set [11] was 108% and 128%; in [11] (OVCAR-4, Log10 Concentration −4.0), −82%; in [11] (OVCAR-4, Log10 Concentration −5.0), −45%; in [11] (OVCAR-4, Log10 Concentration −7.0), 115%. In data set [11] (OVCAR-4), this molecule yielded a GI50 of 2.39 µM. For the same molecule, the TGI in data set [11] (OVCAR-4) is listed as 5.06E−06 Molar.
With `COC(=O)c1[nH]c2c(O)cc(NC(=O)c3cc4cc(OC)c(OC)c(OC)c4[nH]3)c(CCCl)c2c1C(=O)OC` [Compound 22, Dimethyl 4-(2-chloroethyl)-7-hydroxy-5-(5,6,7-trimethoxyindole-2-carboxamido)indole-2,3-dicarboxylate], the TGI in [13] (48 hour exposure) is recorded as 5.64E−06 Molar; in [14] (48 hour exposure), above 5.00E−05 Molar; in data set [15] (48 hour exposure), 5.15E−06 Molar. Besides, the “Percent Growth” value in data set [13] (setting [17]) is on record as −69%; in data set [13] (setting [18]) it was 4%; in data set [13] (setting [19]), 8%; in [13] (setting [20]) it was 73%; in data set [13] (setting [21]) it was 84%; in data set [14] (setting [17]) it was 20%. The “Percent Growth” value in [14] (setting [18]) is listed as 23%; in [14] (setting [19]), 31%; in data set [14] (setting [20]), 88%; in data set [14] (setting [21]), 95%; in data set [15] (setting [17]), −82%; in data set [15] (setting [18]), 1%. The “Percent Growth” value is on record as 5% in data set [15] (setting [19]), 98% in [15] (setting [20]) and 95% in [15] (setting [21]). In data set [16], it took 0.135 µM to inhibit growth by half (GI50). Further, the CC50 in data set [16] (read-out: LC50) was above 50 µM.

The values above are taken from patent US6660742B2, “Compositions and methods of the use thereof achiral analogues of CC-1065 and the duocarmycins” (priority 2000, dated 2003).
